Assay [1] relates to bacteria. Nature of the assay: Bacteria growth inhibition on the hoof (Test Method MCR 3.0 with actual hoof material). The following applies: aqueous solution 0.25 to 0.5%. Format: cell-based. The source says: (§1) Comparative Antimicrobial Testing of Example 4 with Cosmetic Dyes According to Test Method MCR 3.0 with Actual Hoof Material
A further assay concerns fungi. Description: Fungi growth inhibition on the hoof (Test Method MCR 3.0 with actual hoof material). Format: cell-based. The settings on record: aqueous solution 0.25 to 0.5%.
Source text: as §1

For another assay, the system named is T. mentagrophytes. Nature of the assay: Hoof samples submerged, washed to simulate leaching, overlaid with T. mentagrophytes agar. Format: cell-based. The settings on record: 10 wt. % solution; hoof submerged 15 seconds, washed two hours, 3 and 6 days. As for the experimental part: Hoof samples were submerged for 15 seconds in (1) the composition of the invention (i.e., 4:1 of cosmetic dye:Phenoxyethanol, total amount about 0.3 wt. %); (2.1) a 10 wt. % copper sulfate (2.2) a 10 wt. % zinc sulfate solution; (3) untreated as a control. The samples were then washed for two hours to simulate leaching. The samples were then placed into melted PA agar to solidify. Melted agar containing 10E5 CFU/ml of T. mentagrophytes was then added and incubated at room temperature for 3 and 6 days.
Hoof samples were submerged for 15 seconds in (1) the composition of the invention (i.e., 4:1 of antimicrobial dye:Phenoxyethanol, total amount about 0.21 wt. % or 0.3 wt. %); (2) a 10 wt. % copper sulfate or 10 wt. % zinc sulfate solution; or (3) untreated as a control. The samples were then washed for two hours to simulate leaching. The samples were then placed into melted PA agar to solidify. Melted agar containing 10E5 CFU/ml of T. mentagrophytes was then added and incubated at room temperature for 3 and 6 days.

In assay [2] the test system is Arcanobacterium pyogenes (ATCC#9731 and ATCC#19411). Nature of the assay: MIC Test against Arcanobacterium pyogenes under anaerobic conditions (TOXIKON). Type of assay: cell-based. As for the experimental part:
MIC Test of example 4 against Arcanobacterium pyogenes (ATCC#9731 and ATCC#19411) under anaerobic conditions were conducted by the TOXIKON.
Under the same conditions as mentioned in Example 5 conducted by TOXIKON the MIC of a 10% copper sulfate solution (commonly used in hoof baths worldwide) was determined.

Assay [3] is described as follows: Influence of hoof bath contamination by dirt and manure on effectiveness.
For assay [4], the system named is bacteria. Description: Growth / inhibition activity on a hoof surface. Format: cell-based. The following applies: 0.2% alone.
The subject of assay [5] is digital dermatitis lesion (DDL). Description: Footbath study in a large commercial dairy farm, digital dermatitis lesions. The following applies: study 1; 5% solution, twice weekly; mixed logistic regression. Type of assay: in vivo, cows.
Description: The study was conducted in a large commercial dairy farm. […] The adjusted odds of digital dermatitis lesion (DDL) throughout the study period were analyzed by mixed logistic regression model.

A value given as a limit tells only on which side of the number the result lay.

In the case of `CN(C)c1ccc2nc3ccc(=[N+](C)C)cc-3sc2c1` [Methylene Blue], the “bacteria growth inhibition on the hoof” value with bacteria [1] was determined as 60%. Besides, the “fungi growth inhibition on the hoof” value in the assay with fungi is reported as 50%.

In the case of `O=S(=O)([O-])[O-].[Cu+2]` [copper sulfate], the microbial growth entry in the assay on T. mentagrophytes is “intense microbial growth”. The “MIC (concentration giving about 100% reduction / kill)” value in assay [2] (anaerobic conditions, both strains) was “at least 0.078%”. In addition, the kill rate in assay [2] (concentration at least 0.078%, both strains) is on record as approximately 100%. Moreover, in assay [2] (to control Arcanobacterium pyogenes), the “required concentration in comparison to a solution according to example 4” value was “at least 8 times”. For the same compound, in assay [3] (at 2.5% and 5% concentrations, FIG. 1), the “loses effectiveness after contamination” value was not above 4 h.

As to `O=S(=O)([O-])[O-].[Zn+2]` [zinc sulfate], the microbial growth entry in the assay on T. mentagrophytes was “intense microbial growth”.

benzalkonium chloride: in assay [3] (at 1% concentration, FIG. 4), the “loses effectiveness after contamination” value was not above 24 h.

Consider `Cc1cc2nc3ccc(N(C)C)cc3[s+]c2cc1N.[Cl-]` [Toluidine Blue], for which the “bacteria growth inhibition on the hoof” value in the assay on bacteria [1] came out at 80%. Moreover, in the assay on bacteria [4], the “growth on a hoof surface” value is recorded as “bacterial growth”. For the same compound, the “fungi growth inhibition on the hoof” value in the assay on fungi is 50%.

Take `C=O` [formalin]: the “odds of DDL compared with the Dragonhyde group” value in assay [5] amounted to 1.36 times higher.

Consider `CN(C)c1ccc(C(=C2C=CC(=[N+](C)C)C=C2)c2ccc(N(C)C)cc2)cc1.[Cl-]` [Gentian Violet, N-[4[Bis[4-(dimethylamino)-phenyl]methylene]-2,5-cyclohexadien-1-ylidene]-N-methyl-methanaminium chloride], for which the “bacteria growth inhibition on the hoof” value in the assay on bacteria [1] is given as 90%. The “fungi growth inhibition on the hoof” value with fungi turned out to be 80%.

Consider `O=CCCCC=O` [glutaraldehyde], for which the “loses effectiveness after contamination” value in assay [3] (at 2% concentration, FIG. 3) was not above 24 h.

Source of the values: US9918991B2, “Topical antimicrobial compositions and methods of using same” (Hydromer, Inc., priority 2010, dated 2018).
